Active and inactive are the calls of the source.
How the values were obtained:
[1] = target: T1, cGMP-dependent protein kinase 1 (Homo sapiens, UniProt Q13976)
T1 sequence (Q13976 whole entry): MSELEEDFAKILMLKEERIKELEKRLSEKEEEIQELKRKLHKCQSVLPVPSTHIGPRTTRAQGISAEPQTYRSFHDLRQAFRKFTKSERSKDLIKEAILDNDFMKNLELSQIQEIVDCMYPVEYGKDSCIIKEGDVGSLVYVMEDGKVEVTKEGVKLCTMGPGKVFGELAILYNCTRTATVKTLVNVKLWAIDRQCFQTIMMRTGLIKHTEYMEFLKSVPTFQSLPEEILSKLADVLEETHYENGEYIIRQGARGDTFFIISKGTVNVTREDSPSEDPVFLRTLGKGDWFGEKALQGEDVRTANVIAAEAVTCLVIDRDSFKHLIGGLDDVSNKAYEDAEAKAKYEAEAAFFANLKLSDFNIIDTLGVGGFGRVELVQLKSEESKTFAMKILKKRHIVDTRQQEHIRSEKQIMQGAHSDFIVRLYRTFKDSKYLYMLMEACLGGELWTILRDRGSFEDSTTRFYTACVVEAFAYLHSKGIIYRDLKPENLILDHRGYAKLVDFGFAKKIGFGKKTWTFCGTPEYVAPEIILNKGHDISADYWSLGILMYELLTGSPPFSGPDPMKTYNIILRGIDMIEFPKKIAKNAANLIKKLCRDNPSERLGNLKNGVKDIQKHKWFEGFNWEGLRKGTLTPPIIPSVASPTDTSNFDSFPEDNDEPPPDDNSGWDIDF

[2] = target: T2, Exosome RNA helicase MTR4 (Homo sapiens, UniProt P42285)
T2 sequence (P42285 whole entry): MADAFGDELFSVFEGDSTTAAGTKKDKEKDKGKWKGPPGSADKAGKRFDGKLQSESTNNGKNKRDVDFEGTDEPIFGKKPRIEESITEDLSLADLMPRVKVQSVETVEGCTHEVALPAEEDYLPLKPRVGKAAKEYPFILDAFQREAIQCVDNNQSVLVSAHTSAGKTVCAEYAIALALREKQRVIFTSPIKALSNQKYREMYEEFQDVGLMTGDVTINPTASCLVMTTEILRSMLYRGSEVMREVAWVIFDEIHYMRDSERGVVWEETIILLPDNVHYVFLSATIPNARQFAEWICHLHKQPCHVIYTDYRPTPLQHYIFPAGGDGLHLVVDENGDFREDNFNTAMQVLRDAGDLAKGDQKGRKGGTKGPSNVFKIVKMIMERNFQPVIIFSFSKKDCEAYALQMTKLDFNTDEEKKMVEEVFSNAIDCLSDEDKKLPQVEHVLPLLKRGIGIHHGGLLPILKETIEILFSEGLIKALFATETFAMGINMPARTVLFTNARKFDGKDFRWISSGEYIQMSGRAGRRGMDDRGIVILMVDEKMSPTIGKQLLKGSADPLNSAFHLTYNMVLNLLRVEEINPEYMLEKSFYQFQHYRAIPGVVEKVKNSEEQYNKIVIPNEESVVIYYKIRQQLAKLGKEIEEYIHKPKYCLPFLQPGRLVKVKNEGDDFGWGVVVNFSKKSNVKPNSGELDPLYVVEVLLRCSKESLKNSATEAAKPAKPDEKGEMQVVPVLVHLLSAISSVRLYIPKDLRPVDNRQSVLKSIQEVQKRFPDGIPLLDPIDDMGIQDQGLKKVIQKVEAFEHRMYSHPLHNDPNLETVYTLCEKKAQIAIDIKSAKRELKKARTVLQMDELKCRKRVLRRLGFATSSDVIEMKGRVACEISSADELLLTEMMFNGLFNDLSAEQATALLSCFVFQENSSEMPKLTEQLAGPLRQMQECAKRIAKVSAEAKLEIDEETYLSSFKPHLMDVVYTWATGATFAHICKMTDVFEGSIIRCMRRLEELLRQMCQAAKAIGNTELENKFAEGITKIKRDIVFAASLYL

[3] = target: Cyclin-dependent kinase 1 (Homo sapiens, UniProt P06493)
[4] = target: T3, Cytochrome c1, heme protein, mitochondrial (Homo sapiens, UniProt P08574)
T3 sequence (P08574 whole entry): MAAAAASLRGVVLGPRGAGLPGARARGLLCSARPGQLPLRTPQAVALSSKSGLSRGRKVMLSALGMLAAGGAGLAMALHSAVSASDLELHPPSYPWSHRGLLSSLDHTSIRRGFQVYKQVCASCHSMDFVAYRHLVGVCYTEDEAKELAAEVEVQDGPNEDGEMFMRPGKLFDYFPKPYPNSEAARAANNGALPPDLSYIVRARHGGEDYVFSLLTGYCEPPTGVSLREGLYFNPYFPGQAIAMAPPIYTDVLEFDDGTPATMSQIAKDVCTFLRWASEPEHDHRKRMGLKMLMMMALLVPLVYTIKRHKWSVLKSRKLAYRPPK

[5] = target: T4, Serine/threonine-protein kinase Nek2 (Homo sapiens, UniProt P51955)
T4 sequence (P51955 whole entry): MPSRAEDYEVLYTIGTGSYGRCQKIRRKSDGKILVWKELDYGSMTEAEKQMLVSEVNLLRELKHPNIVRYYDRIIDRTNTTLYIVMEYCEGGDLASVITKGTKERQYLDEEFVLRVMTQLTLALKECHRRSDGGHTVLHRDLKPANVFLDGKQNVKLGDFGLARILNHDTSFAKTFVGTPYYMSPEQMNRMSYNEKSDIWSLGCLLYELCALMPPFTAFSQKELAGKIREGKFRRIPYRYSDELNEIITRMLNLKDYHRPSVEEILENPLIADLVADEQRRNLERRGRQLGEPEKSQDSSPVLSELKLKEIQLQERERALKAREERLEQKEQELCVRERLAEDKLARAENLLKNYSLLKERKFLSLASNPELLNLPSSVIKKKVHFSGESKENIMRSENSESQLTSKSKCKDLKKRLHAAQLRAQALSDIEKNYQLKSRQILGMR

[6] = target: Mitogen-activated protein kinase 8 (Homo sapiens, UniProt P45983)

Measured: Kd
Also: in the data inactive means no Kd found up to 30 µM.

Cyclin-dependent kinase 1, sequence (P06493 whole entry): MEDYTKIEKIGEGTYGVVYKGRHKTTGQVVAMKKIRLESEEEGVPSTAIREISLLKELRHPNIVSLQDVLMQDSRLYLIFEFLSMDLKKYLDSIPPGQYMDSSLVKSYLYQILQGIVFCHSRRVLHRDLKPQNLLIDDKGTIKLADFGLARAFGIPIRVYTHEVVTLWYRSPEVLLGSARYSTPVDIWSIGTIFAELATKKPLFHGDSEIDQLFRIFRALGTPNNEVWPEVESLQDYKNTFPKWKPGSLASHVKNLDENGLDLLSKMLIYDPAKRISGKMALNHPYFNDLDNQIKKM
Mitogen-activated protein kinase 8, sequence (P45983 whole entry): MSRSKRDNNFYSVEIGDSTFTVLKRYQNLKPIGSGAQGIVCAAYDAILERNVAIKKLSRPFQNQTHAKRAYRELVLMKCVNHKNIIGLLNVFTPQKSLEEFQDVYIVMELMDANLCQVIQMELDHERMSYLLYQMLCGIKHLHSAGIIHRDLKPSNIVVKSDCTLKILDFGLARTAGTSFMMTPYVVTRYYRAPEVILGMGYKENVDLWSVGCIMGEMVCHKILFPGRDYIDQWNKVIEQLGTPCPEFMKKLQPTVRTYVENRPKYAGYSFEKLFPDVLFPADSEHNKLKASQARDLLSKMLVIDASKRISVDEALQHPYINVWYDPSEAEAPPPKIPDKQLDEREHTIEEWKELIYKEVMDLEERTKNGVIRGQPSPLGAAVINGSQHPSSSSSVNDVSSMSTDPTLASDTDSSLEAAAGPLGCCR

COc1cc2nccc(Oc3ccc(NC(=O)NC4CC4)c(Cl)c3)c2cc1C(N)=O [LENVATINIB]
inactive: [1] > 30 µM | [2] > 30 µM | [3] > 30 µM | [4] > 30 µM | [5] > 30 µM

CO[C@H]1C[C@@H]2CC[C@@H](C)[C@@](O)(O2)C(=O)C(=O)N2CCCC[C@H]2C(=O)O[C@H]([C@H](C)C[C@@H]2CC[C@@H](OCCO)[C@H](OC)C2)CC(=O)[C@H](C)/C=C(\C)[C@@H](O)[C@@H](OC)C(=O)[C@H](C)C[C@H](C)/C=C/C=C/C=C/1C [EVEROLIMUS]
inactive: [1] > 30 µM | [2] > 30 µM | [3] > 30 µM | [4] > 30 µM | [5] > 30 µM | [6] > 30 µM

Cc1ccc(NC(=O)c2ccc(CN3CC[C@H](N(C)C)C3)c(C(F)(F)F)c2)cc1Nc1nccc(-c2cncnc2)n1 [BAFETINIB]
inactive: [1] > 30 µM | [2] > 30 µM | [3] > 30 µM | [4] > 30 µM | [5] > 30 µM | [6] > 30 µM

CC(C)Nc1cc(-c2c[nH]c(C(=O)N[C@H](CO)c3cccc(Cl)c3)c2)c(Cl)cn1 [ULIXERTINIB]
inactive: [1] > 30 µM | [2] > 30 µM | [3] > 30 µM | [4] > 30 µM | [5] > 30 µM | [6] > 30 µM

O=C(Nc1cccc(Cl)c1)Nc1ncc(CCNc2ncnc3ccsc23)s1 [SNS-314]
inactive: [2] > 30 µM | [4] > 30 µM

O=C1NC(=O)/C(=C/c2ccc3nccc(-c4ccncc4)c3c2)S1 [GSK-1059615]
inactive: [1] > 30 µM | [2] > 30 µM | [3] > 30 µM | [4] > 30 µM | [5] > 30 µM | [6] > 30 µM

Cc1cn(-c2cc(NC(=O)c3ccc(C)c(Nc4nccc(-c5cccnc5)n4)c3)cc(C(F)(F)F)c2)cn1 [NILOTINIB]
inactive: [2] > 30 µM | [3] > 30 µM | [4] > 30 µM

COc1cc(CCc2cc(NC(=O)c3ccc(N4C[C@@H](C)N[C@@H](C)C4)cc3)n[nH]2)cc(OC)c1 [AZD-4547]
inactive: [1] > 30 µM | [2] > 30 µM | [3] > 30 µM | [4] > 30 µM | [5] > 30 µM | [6] > 30 µM

C[C@@H]1CN(Cc2ccc(F)cc2)[C@@H](C)CN1C(=O)c1cc2c(C(=O)C(=O)N(C)C)cn(C)c2cc1Cl [TALMAPIMOD]
inactive: [1] > 30 µM | [2] > 30 µM | [3] > 30 µM | [4] > 30 µM | [5] > 30 µM | [6] > 30 µM

Nc1nc(N)c2nc(-c3cccc(O)c3)c(-c3cccc(O)c3)nc2n1 [TG100-115]
inactive: [2] > 30 µM | [3] > 30 µM

CN1CCN(c2ccc3nc(-c4c(N)c5c(F)cccc5[nH]c4=O)[nH]c3c2)CC1 [DOVITINIB]
inactive: [2] > 30 µM | [3] > 30 µM | [4] > 30 µM

Cc1cc(Nc2cc(N3CCN(C)CC3)nc(/C=C/c3ccccc3)n2)n[nH]1 [ENMD-2076]
inactive: [2] > 30 µM | [4] > 30 µM

Cc1nc(N)sc1-c1ccnc(Nc2ccc(N3CCOCC3)cc2)n1 [CYC-116]
inactive: [2] > 30 µM | [4] > 30 µM

C[C@@H](c1ccc2nccn2c1)n1nnc2ncc(-c3cnn(C)c3)nc21 [SAVOLITINIB]
inactive: [1] > 30 µM | [2] > 30 µM | [3] > 30 µM | [4] > 30 µM | [6] > 30 µM

CN1CCC(COc2cnc(-c3cccc(Cn4nc(-c5cccc(C#N)c5)ccc4=O)c3)nc2)CC1 [TEPOTINIB]
inactive: [1] > 30 µM | [2] > 30 µM | [3] > 30 µM | [4] > 30 µM | [5] > 30 µM

CCn1c(-c2nonc2N)nc2c(C#CC(C)(C)O)ncc(OC[C@H]3CCCNC3)c21 [GSK-690693]
inactive: [2] > 30 µM | [3] > 30 µM | [4] > 30 µM

CCc1cnn2c(NCc3ccc[n+]([O-])c3)cc(N3CCCC[C@H]3CCO)nc12 [DINACICLIB]
inactive: [1] > 30 µM | [2] > 30 µM | [4] > 30 µM

OCCn1cc(-c2cnc3nnn(Cc4ccc5ncccc5c4)c3n2)cn1 [PF-04217903]
inactive: [1] > 30 µM | [2] > 30 µM | [3] > 30 µM | [4] > 30 µM

COC(=O)[C@@]1(O)C[C@H]2O[C@]1(C)n1c3ccccc3c3c4c(c5c6ccccc6n2c5c31)C(=O)NC4 [K-252A]
inactive: [1] > 30 µM | [2] > 30 µM | [3] > 30 µM | [4] > 30 µM | [5] > 30 µM

CN(C)C(=O)c1cc2cnc(Nc3ccc(N4CCNCC4)cn3)nc2n1C1CCCC1 [RIBOCICLIB]
inactive: [1] > 30 µM | [2] > 30 µM | [4] > 30 µM | [5] > 30 µM | [6] > 30 µM

Reference: ChEMBL document CHEMBL3991601, “The target landscape of clinical kinase drugs” (Science, 2017)
